# Assay results: patent publication US11505548B2, “Heterocyclic compounds and their use for treatment of helminthic infections and diseases” (Celgene Corporation, priority 2019, dated 2022)
# Like-named read-outs stand apart in the source and are kept apart here.
# Test system: Onchocerca gutturosa Adult Male Worms
# Experiment: Onchocerciasis in vitro screening model, worm motility score
# Format: cell-based
# Details: read-out: O. gutturosa activity level (IC50 or MED)
# [1] = Onchocerca gutturosa, Table 1 O. gutturosa, levels A/B/C, motility or MTT readout not specified
# [2] = in vitro, Onchocerca gutturosa adult male worms, class A/B/C
IC50 [1],IC50 [2],Structure (SMILES)
500 to 5000 nM,,"Cc1cccnc1Nc1nc(-c2ccc(OC3CCN(C)CC3)cn2)n[nH]1 [Compound 71, 3-methyl-N-(3-(5-(1-methyl-piperidin-4-yloxy)pyridin-2-yl)-1H-1,2,4-triazol-5-yl) pyridin-2-amine]"
,500 to 5000 nM,"CC(C)Oc1ccc(-c2nsc(Nc3ncc(C(F)(F)F)cc3C(=O)N3CCCC3)n2)nc1 [Compound 328, (2-(3-(5-isoprop-oxypyridin-2-yl)-1,2,4-thiadiazol-5-ylamino)-5-(trifluoromethyl)pyridin-3-yl)(pyrrolidin-l-yl)methanone]"
,500 to 5000 nM,"Cc1ccnc(Nc2nnc(-c3ncccc3C)o2)c1 [Compound 236, 5-(3-methyl-pyridin-2-yl)-N-(4-methy-lpyridin-2-yl)-1,3,4-oxadiazol-2-amine]"
200 to 500 nM,,"CNc1cccnc1Nc1nc(-c2ccc(OC3CCN(C4CC4)CC3(F)F)cn2)ns1 (stereo not drawn) [Compound 122, N2-(3-(5-(1-cyclopropyl-3,3-difluoropiperidin-4-yloxy)pyridin-2-yl)-1,2,4-thiadiazol-5-yl)-N3-methyl-pyridine-2,3-diamine]"
,500 to 5000 nM,"CC(C)Oc1cccnc1-c1nsc(Nc2ncc(C(F)(F)F)cc2C(=O)N(C)C)n1 [Compound 281, 2-(3-(3-isoprop-oxypyridin-2-yl)-1,2,4-thiadiazol-5-ylamino)-N,N-dimethyl-5-(trifluoromethyl) nicotinamide]"
200 to 500 nM,,"Cc1cccnc1Nc1nc(-c2ccc(OC3CC4(C3)CN(C3CC3)C4)cn2)ns1 [Compound 82, 3-(5-(2-cyclo-propyl-2-azaspiro[3.3]heptan-6-yloxy)pyridin-2-yl)-N-(3-methylpyridin-2-yl)-1,2,4-thiadiazol-5-amine]"
,< 200 nM,"CC(=O)N(C)c1cc(C(F)(F)F)cnc1Nc1nc(-c2ccccn2)ns1 [Compound 325, N-methyl-N-(2-(3-(pyridin-2-yl)-1,2,4-thiadiazol-5-ylamino)-5-(trifluoromethyl)pyridin-3-yl)acetamide]"
500 to 5000 nM,,"COc1cnc(-c2nnc(Nc3ncccc3N(C)C)o2)cn1 [Compound 158, N2-(5-(5-methoxy-pyrazin-2-yl)-1,3,4-oxadiazol-2-yl)-N3,N3-dimethyl-pyridine-2,3-diamine]"
,< 200 nM,"CC(=O)N(C)c1cc(C(F)(F)F)cnc1Nc1nc(-c2cc3c(cn2)N(C)C(C)(C)C3)ns1 [Compound 291, N-methyl-N-(5-(trifluoromethyl)-2-(3-(1,2,2-trimethyl-2,3-dihydro-1H-pyrrolo[2,3-c]pyridin-5-yl)-1,2,4-thiadiazol-5-ylamino)pyridin-3-yl)acetamide]"
200 to 500 nM,,"Cc1cccnc1Nc1nc(-c2ccc(OC3CCN(CC4CC4)CC3)cn2)ns1 [Compound 75, 3-(5-(1-(cyclopropyl-methyl)piperidin-4-yloxy)pyridin-2-yl)-N-(3-methylpyridin-2-yl)-1,2,4-thiadiazol-5-amine]"
500 to 5000 nM,,"CNc1cccnc1N(C)c1nc(-c2ccc(OC(C)C)cn2)ns1 [Compound 159, N2-(3-(5-isopropoxy-pyridin-2-yl)-1,2,4-thiadiazol-5-yl)-N2,N3-dimethyl-pyridine-2,3-diamine]"

Structure (SMILES),IC50 [1],IC50 [2]
"CN1CCC(Oc2ccnc(-c3nsc(Nc4ncccc4C(F)(F)F)n3)c2)CC1 [Compound 62, 3-(4-(1-methyl-piperidin-4-yloxy)pyridin-2-yl)-N-(3-(trifluoromethyl)pyridin-2-yl)-1,2,4-thiadiazol-5-amine]",< 200 nM,
"CC(C)Oc1ccc(-c2nsc(Nc3ncccc3N(C)C(=O)C3CCCC3)n2)nc1 [Compound 172, N-(2-(3-(5-isopropoxy-pyridin-2-yl)-1,2,4-thiadiazol-5-ylamino)pyridin-3-yl)-N-methylcyclo-pentane-carboxamide]",< 200 nM,
"Cc1cccnc1Nc1nc(-c2cc(C#N)ccn2)ns1 [Compound 40, 2-(5-(3-methyl-pyridin-2-ylamino)-1,2,4-thiadiazol-3-yl)isonicotino-nitrile]",500 to 5000 nM,
"CC(C)c1ccnc(-c2nsc(Nc3ncccc3C(F)(F)F)n2)c1 [Compound 67, 3-(4-isopropyl-pyridin-2-yl)-N-(3-(trifluoromethyl)pyridin-2-yl)-1,2,4-thiadiazol-5-amine]",< 200 nM,
